Laboratory results published in article PMC6381168, “Anoctamin-4 is a bona fide Ca^2+-dependent non-selective cation channel” (Scientific Reports, 2019).

Biological target: T1, Ano4 (Mus musculus, UniProt Q8C5H1)
T1 construct: full length, 955 residues, C-terminal Myc tag (pcDNA3), transiently expressed in HEK293 cells
T1 sequence (Q8C5H1 1-955): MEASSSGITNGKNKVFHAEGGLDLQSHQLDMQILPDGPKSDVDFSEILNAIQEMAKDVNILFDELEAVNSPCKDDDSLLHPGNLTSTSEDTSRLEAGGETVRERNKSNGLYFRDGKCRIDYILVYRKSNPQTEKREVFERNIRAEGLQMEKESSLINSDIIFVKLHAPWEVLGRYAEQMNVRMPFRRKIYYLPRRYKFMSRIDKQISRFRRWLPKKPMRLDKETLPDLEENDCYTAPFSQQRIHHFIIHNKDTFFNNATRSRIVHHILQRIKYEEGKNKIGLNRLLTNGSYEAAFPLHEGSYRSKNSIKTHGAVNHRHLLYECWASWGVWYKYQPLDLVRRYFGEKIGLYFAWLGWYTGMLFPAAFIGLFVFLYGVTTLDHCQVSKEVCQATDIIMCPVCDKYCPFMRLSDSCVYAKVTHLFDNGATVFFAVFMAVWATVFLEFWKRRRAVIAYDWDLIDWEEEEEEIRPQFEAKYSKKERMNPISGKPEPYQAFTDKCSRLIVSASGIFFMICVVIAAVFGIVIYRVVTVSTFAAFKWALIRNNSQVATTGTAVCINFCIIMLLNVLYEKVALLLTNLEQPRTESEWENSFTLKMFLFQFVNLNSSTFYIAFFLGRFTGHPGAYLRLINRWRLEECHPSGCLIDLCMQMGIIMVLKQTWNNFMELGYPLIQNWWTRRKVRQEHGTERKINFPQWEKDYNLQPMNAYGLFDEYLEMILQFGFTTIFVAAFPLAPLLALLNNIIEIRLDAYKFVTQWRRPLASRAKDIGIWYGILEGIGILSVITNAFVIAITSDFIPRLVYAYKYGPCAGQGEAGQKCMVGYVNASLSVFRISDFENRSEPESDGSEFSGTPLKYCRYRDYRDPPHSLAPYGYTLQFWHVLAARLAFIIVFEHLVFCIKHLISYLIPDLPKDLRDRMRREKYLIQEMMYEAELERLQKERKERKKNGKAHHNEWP
Experiment: whole-cell patch clamp, block of ionomycin-activated current
Type: cell-based
Details: 100 uM niflumic acid; extracellular Ringer with 1 uM ionomycin, pH 7.2, room temperature; channel blocker

For `O=C(O)c1cccnc1Nc1cccc(C(F)(F)F)c1` [niflumic acid], the “whole-cell patch clamp, block of ionomycin-activated current” value was “The Ano4-dependent current was blocked by the application of the fenamate niflumic acid”.
